Laboratory results taken from patent publication US20160176914A1, “GLYCOSYLATED CARDIOTONIC STEROIDS” (priority 2013, published 2016).
Read-outs that look alike come from different tables or passages of the source.

Tests used:
[1] = target: α1β1 Na+/K+ ATPase (Homo sapiens, UniProt P05023); test: Na+/K+ ATPase pump binding, α1β1 isoform (radioactive displacement assay)
Procedure: (§1) α1/2/3-Na^+/K^+ ATPase pump binding data was assessed for compounds of Table 1.
(§2) Further, from the results, a strong correlation between cancer cell cytotoxicity and α1/3-Na^+/K^+ ATPase pump binding selectivity was observed (see: α-L-amiceto-mono-, di- and tri-saccharides; Scheme 1). In addition, it was observed that mono-saccharides have improved activity and α1/2/3-isoform selectivity. […] The Na^+/K^+ ATPase binding data also correlates with the cytotoxicity data, which can be seen in the binding data of compounds 1.5-1.7 to all three isomers (α1β1/α2β1/α3β1), which decreases proportionally the MTT data (Table 1).

[2] = target: α2β1 Na+/K+ ATPase (Homo sapiens, UniProt P50993); test: Na+/K+ ATPase pump binding, α2β1 isoform (radioactive displacement assay)
Procedure: as §1, §2

[3] = target: α3β1 Na+/K+ ATPase (Homo sapiens, UniProt P13637); test: Na+/K+ ATPase pump binding, α3β1 isoform (radioactive displacement assay)
Procedure: as §1, §2

[4] = system: NCI-H460 cells; test: cells; format: cell-based, Human; conditions: Homo sapiens
Procedure: (§3) Human non-small cell lung cancer cells (NCI-H460) were purchased from the American Type Culture Collection (Manassas, Va.). NCI-H460 cells were cultured in RPMI 1640 medium supplemented with 10% bovine fetal serum (FBS), 2 mM L-glutamine and 100-units/ml penicillin/streptomycin. All experiments with NCI-H460 cells were performed in medium enriched with 1% FBS serum, 2 mM L-glutamine and 100-units/ml penicillin/streptomycin. 1% FBS was used due to existing concerns about digitoxin binding to serum proteins.
Cells were seeded overnight in 96 well plates at a concentration of 1×10^4 cells/well, and then treated for 48 h with a log10 scale dilution series of the glycosylated CS compounds (e.g., digitoxin or D6-MA) dissolved in sterile filtered DMSO. Subsequently, 10 μl of 5 mg/ml MTT reagent was added to each well and then incubated for 4 h at 37° C. Isopropanol acidified with 0.04 N HCl was used to dissolve converted dye. Absorbance at 570 nm was measured using an Automated Microplate Reader ELx800 (BioTek, Winooski, Vt.). Each experiment was conducted 4 times with 4 replicate wells per concentration.
(§4) All results are presented as mean±standard deviation. For cell viability, ATPase activity and apoptosis assays, dose-response curves and concentrations that caused 50% effect (i.e. IC50) were calculated for the prepared compounds listed in Tables 1-3 in all the cell lines tested using non-linear regression analysis in GraphPad Prism 5.0 (San Diego, Calif.). Two-way analysis of variance (ANOVA) and unpaired two-tailed Student's t-test with α=0.05 were performed to compare the effect of compounds and administered dose on cell viability, apoptosis and quantified protein expression data. Post-hoc Tukey-Kramer HSD tests were conducted on significant ANOVA results. Results were considered significant when p≦0.05.

[5] = system: NCI-H460 cells; test: Apoptosis assay (Hoechst 33342); format: cell-based; conditions: Homo sapiens, read-out: Anticancer Apoptosis GI50
Procedure: as §3
Cells were seeded overnight in 12 or 24 well plates at a concentration of 1×10^5 cell/ml and subsequently treated with different concentrations of the glycosylated CS compounds for 24 h. After treatment, cells were incubated with […] of Hoechst 33342 for 30 min and analyzed for apoptosis by scoring the percentage of cells having intensely condensed chromatin and/or fragmented nuclei using fluorescence microscopy (Leica Microsystems, Bannockburn, Ill.). Approximately 1,000 nuclei from ten random fields were analyzed for each sample. The apoptotic index was calculated as the percentage of cells with apoptotic nuclei over total number of cells.
as §4

[6] = system: HCMV; test: Anti-CMV activity assay, inhibition of HCMV replication in infected HFFs; format: cell-based, human Cytomegalovirus (HCMV); conditions: for SI (selectivity index, CC50/EC50): CC50 noninfected HFFs / EC50 infected HFFs
Procedure: It has been observed that the infection of human foreskin fibroblasts (HFF) cells with HCMV causes an up regulation of the α3-isoform of the Na^+/K^+-Pump. Therefore the inhibition of HCMV replication by the compounds described herein was tested using procedure described by Cai, H. et al., in Med. Chem. Lett. 2014, 5, 395-399, which is incorporated by reference in its entirety. Generally, inhibition of Towne HCMV: pp28-luciferase activity was measured in cell lysates of HCMV-infected HFFs collected at 72 h post infection (hpi). Virus DNA yield in supernatants of HCMV-infected cells collected at 96 hpi was measured by real-time PCR. Plaque reduction assay performed at 8 days postinfection. Data represent mean values (±SD) of triplicate determinations from three independent experiments.
Inhibition of TB40 HCMV: HFFs were infected with HCMV-TB40 strain at MOI of 1 pfu/cell and treated with compounds listed in Tables 1-3 for 3 days.
(§5) The glycosylated cardiotonic steroid compounds were tested for their anti-cytomegalovirus (CMV) activity. Specifically, the compounds were tested for the ability to inhibit HCMV replication. For each compound, the anti-HCMV activity in infected HFFs was expressed as EC50, whereas cytotoxicity in noninfected HFFs was expressed as CC50. Selectivity index (SI), defined as CC50/EC50, was calculated for each compound.

[7] = Cytotoxicity in noninfected HFFs (MTT); format: cell-based, human; conditions: human
Procedure: as §5

[8] = system: noninfected HFFs; test: Cytotoxicity in noninfected HFFs (MTT); format: cell-based, human
Procedure: as §5

[9] = NCI-H460, 48 h, read-out: Anticancer MTT IC50
[10] = anti-HCMV activity in infected HFFs, read-out: EC50

Row | Molecule | Kd [1] | Kd [2] | Kd [3] | IC50 [4, 9] | GI50 ([5]; NCI-H460, 24 h) | SI (selectivity index, CC50/EC50) [6] | EC50 ([6]; Human betaherpesvirus 5) | CC50 [7] | EC50 [6, 10] | CC50 [8] | also measured
1 | CC1O[C@@H](O[C@H]2CCC3(C)C(CC[C@@H]4C3CCC3(C)[C@@H](C5=CC(=O)OC5)CC[C@]43O)C2)C(O)C(O)[C@H]1O (stereo partly drawn) [Compound 1.2, digitoxigenin α-L-rhamnopyranoside] | 27 nM | 23 nM | 19 nM | 47 nM | 2 nM | 173 | 4.77 ± 0.23 nM | 664 ± 185 nM | – | – | SI (selectivity index, CC50/EC50) ([6]; listed as α-L-Rhamnose (1.2)): 139.25
2 | CC1O[C@@H](O[C@H]2CCC3(C)C(CC[C@@H]4C3CCC3(C)[C@@H](C5=CC(=O)OC5)CC[C@]43O)C2)CC[C@H]1O (stereo partly drawn) [Compound 1.5, digitoxigenin α-L-amecitopyranoside] | 56 nM | 38 nM | 26 nM | 48 nM | 3 nM | 139 | 3.77 ± 0.08 nM | 655 ± 177 nM | – | – | SI (selectivity index, CC50/EC50) ([6]; listed as α-L-Amicetose (1.5)): 173.61
3 | CC1OC(OC2CCC(OC3CCC(OC4CCC5(C)C(CCC6C5CCC5(C)C(C7=CC(=O)OC7)CCC65O)C4)OC3C)OC2C)CCC1O (stereo not drawn) [Compound 1.7] | 670 nM | 149 nM | 736 nM | 3960 nM | – | – | – | – | – | – | –
4 | C[C@H]1O[C@@H](O[C@H]2[C@@H](O)C[C@H](O[C@H]3[C@@H](O)C[C@H](O[C@H]4CC[C@@]5(C)[C@H](CC[C@@H]6[C@@H]5CC[C@]5(C)[C@@H](C7=CC(=O)OC7)CC[C@]65O)C4)O[C@@H]3C)O[C@@H]2C)C[C@H](O)[C@@H]1O [Digitoxin, reference compound] | – | – | – | – | – | 120.46 | 23.3 ± 0.67 nM | 2810 ± 668 nM | – | – | Kd ([1]; first KD column of Table 4, read-out: Na+/K+ATPase inhibition KD, α1β1): 80 nM; Kd ([2]; second KD column of Table 4, read-out: Na+/K+ATPase inhibition KD, α2β1): 38 nM; Kd ([3]; third KD column of Table 4, head printed α1β1 a second time, read-out: Na+/K+ATPase inhibition KD, α1β1): 36 nM; IC50 ([4]; NCI-H460, Table 4, 48 h treatment, unit inferred, read-out: Anticancer MTT IC50): 357 nM; IC50 ([4]; NCI-H460, Table 5, H460 cells, compounds of Table 2, read-out: IC50): 157 nM; GI50 ([5]; NCI-H460, Table 4, 24 h treatment, unit inferred): 11 nM; SI (selectivity index, CC50/EC50) ([6]; listed as digitoxin): 120
5 | α-D-Amicetose | – | – | – | – | – | – | – | – | 37.5 ± 0.52 nM | 1110 ± 273 nM | –
6 | α-D-Rhamnose | – | – | – | – | – | – | – | – | 26.6 ± 0.88 nM | 2270 ± 551 nM | –
